The text below walks through data of patent publication US6723703B2, “Therapeutic use of aerosolized S-nitrosoglutathione in cystic fibrosis” (Duke University, priority 2000, dated 2004).

Molecules are shown by their SMILES. “Also recorded” adds a separate entry of the source.

The subject of series [1] is human airway smooth muscle preparations. As to conditions: read-out: IC50 in relaxing human airway smooth muscle preparations; cited from earlier work.
For series [2] the following is noted: cited from earlier work.
Series [3] deals with patients with CF. The series can be described thus: Double-blind, placebo-controlled nebulized GSNO study in patients with CF. The class given is in vivo, human. The procedure:
FIG. 3. […] In a double-blind, placebo-controlled study, patients with CF received GSNO in 10 mM phosphate buffered saline (PBS) (n=9) or 10 mM PBS alone (n=11) by nebulizer. The two groups were matched with respect to age, vital signs, oxygen saturation, vital capacity, FEV1, and FEF25-75(p=7). Change in oxygen saturation from pretreatment baseline is recorded as a function of time. Results are shown in FIG. 3 where the continuous line represents the GSNO group and the line composed of dashes represents the PBS alone group. […] FIG. 4. Inhaled S-nitrosoglutathione cases increased expired nitric oxide (NO) concentration in CF. Data presented represent the two groups described in FIG. 3, but with respect to expired nitric oxide concentration (measured off-line with chemiluminescence in accordance with American Thoracic Society guidelines). Results are shown in FIG. 4 where the continuous line represents the GSNO group and the line composed of dashes represents the PBS alone group. […] Note that the change at 30 minutes is less pronounced than at 5 minutes, though improvement in oxygenation is as dramatic at 30 minutes as at 5 minutes. […] These S-nitrosylation reactions may be critically important to smooth muscle relaxation, antimicrobial effects and modification of ion channel function. FIGS. 5A, 5B, 5C, 5D, 5E and 5F. Inhaled S-nitrosoglutathione is well tolerated in CF patients.

Series [4] deals with human CFTR protein bearing the ΔF508 mutation. The series can be described thus: Western blot of CFTR in CFPAC-1 cells treated with GSNO. The class given is cell-based. The method, then: FIG. 1. […] Human pancreatic adenocarcinoma cells from a patient homozygous for ΔF508 (CFPAC-1) were grown to confluence and treated with medium alone (control) or 500 nM, 1 μM, 5 μM, 10 μM or 100 mM GSNO for 6 hours. The cells were harvested, lysed, resuspended in NP40 buffer and underwent Western Blot analysis with anti-CFTR antibody. […] Increased expression of the immature non-glycosylated protein (140 kDa) reflects decreased degradation of the immature protein in the endoplasma retimulum The appearance of a band at 180 kDa (mature protein) reflects maturation of the protein in the endoplasmic reticulum, an expression of a form capable of being expressed on the cell surface representative of three experiments. The full maturing of the protein accommodates for the ΔF508 mutation.

For series [5], the system named is ubiquitin proteosome pathway. The series can be described thus: Inhibition of the ubiquitin proteosome pathway (preliminary evidence). The following applies: stabilizes expression of hypoxy inducible factor 1. The source says: Cystic fibrosis is caused by mutations in a membrane-associated chloride channel, the cystic fibrosis transmembrane regulatory protein (CFTR). The most common mutation, accounting for 70% of alleles, is a 3 base pair (single amino acid) deletion at the 508 position on the first ATP binding domain, the (ΔF508) mutation. This is referred to as a class II mutation in that intact and potentially functional protein is degraded in the endoplasm reticulum because of a small folding error. It is known that his degradation can be bypassed in vitro by hypothermia and by treatment with compounds,such as glycerol and phenylbutyrate. These treatments result in functional expression of (ΔF508) CFTR on the cell surface. It has recently been proposed that CFTR degradation in the endoplasmic reticulum (ER) is mediated by the ubiquitin-proteasome system.

[6] abbreviates: cells homozygous to the ΔF508 mutation, 100 μM GSNO.

With `N[C@@H](CCC(=O)N[C@@H](CSN=O)C(=O)NCC(=O)O)C(=O)O` [GSNO, S-nitrosoglutathione], the IC50 in series [1] was around 10 µM. Besides, the “stability at acid pH” value in series [2] is reported as “stable at acid pH”. The “tolerability (vital signs, lung function, systemic effects)” value in series [3] (CF patients, inhaled 0.05 ml/kg of 10 mM GSNO) was “no acute change in vital signs or lung function was observed; also recorded: well tolerated in CF and has no adverse systemic affects”. Also, the “change in oxygen saturation from pretreatment baseline” value in series [3] (inhalation of 0.05 ml/kg of 10 mM GSNO by nebulizer vs PBS alone, p<0.001 by ANOVA) is on record as “greater improvement in oxygen saturation than those in the PBS group; also recorded: improved oxygenation”. Besides, the “stabilization and maturation of ΔF508 CFTR protein (Western blot, 140/160/180 kDa bands)” value in series [4] (CFPAC-1 cells, 500 nM, 1 μM, 5 μM, 10 μM or 100 mM GSNO for 6 hours) is “stabilizes and allows maturation of human CFTR protein bearing the ΔF508 mutation”. Moreover, in series [4] (setting [6]), the “expression of CFTR” value is “increases the expression of CFTR” and the “maturation of CFTR” value is “increases the maturation of CFTR”. The “inhibition of ubiquitin proteosome pathway” value in series [5] is listed as “inhibits the ubiquitin proteosome pathway”.
